The values that follow come from patent US11485713B2, “Androgen receptor modulators and methods for their use” (ESSA Pharma, Inc., priority 2018, dated 2022).

Counter-ions that a name gives are not always drawn.

One data set concerns LNCaP ARE-Luc. Nature of the data set: Luciferase assay in LNCaP cell lysates (LNCaP ARE-Luc). The note with it: Homo sapiens, Firefly Luciferase Assay System, read-out: LNCaP ARE-Luc % inhibition IC50 Ranges. It counts as cell-based. As to the method: Lysates were thawed on ice then collected into V-bottom 96-well tissue culture plates. Lysates were centrifuged at 4° C. for 5 minutes at 4000 rpm. To measure luminescence of LNCaP cell lysates the Firefly Luciferase Assay System (Promega) was employed, according to manufacturer's protocol. Relative luminescence units (RLU) in cell lysates were detected for 10 seconds using Promega GoMax-Multi Detection Luminometer (Promega).
Statistical analyses were performed using GraphPad Prism (Version 6.01 for Windows; La Jolla, Calif., USA). Comparisons between treatment and control groups were compared using Two-Way ANOVA with post-hoc Dunnett's and Tukey's tests. Differences were considered statistically significant at P values less than 0.05. Densitometric quantification of relative AR levels was determined by Image.

Data set [1] in a line: Hepatocyte stability assay, MH. It counts as in vitro ADME. The conditions noted are these: mouse, cryopreserved hepatocytes, 1 μM test compound, 0.5 million cells/mL hepatocytes, 37° C., 0-180 min, read-out: MH +/− NADPH: Clint (μL/min/million cells). From the text:
Hepatocyte Stability Assay: The […] of in vitro intrinsic clearance (Clint) for drug candidates in the early discovery stage is common practice in the pharmaceutical industry. The Clint values of drug candidates can help to confirm whether metabolism is the main clearance pathway when it is compared with the total body clearance in vivo. Hepatocytes are among the routinely used in vitro systems for measuring clearance. Hepatocytes have been reported to retain most of the phase I and phase II metabolic activities, and therefore, it is a useful tool to estimate the intrinsic clearance for potential drug candidates.
Metabolic stability of testing compound were be evaluated using human and mouse hepatocytes and can also be use rat, mouse, or other animal hepatocytes to predict intrinsic clearance. Cryopreserved hepatocytes were removed from the liquid nitrogen tank and thawed in a 37° C. water bath. As soon as the cells pulled away from the vial wall, they were decanted into 48 ml of warm HT medium. Cells were centrifuged for four minutes at 420 rpm (50 g). After removing the supernatant, pellet was re-suspended in warm DMEM medium. Cell density was counted by a hemacytometer.
The assay was carried out in 96-well microtiter plates. Compounds were incubated for 0, 60, 120, and 180 minutes at 37° C. with hepatocytes. Reaction mixtures (50 μL) contained a final concentration of 1 μM test compound, 0.5 million cells/mL hepatocytes in the DMEM medium. At each of the time points (for example, 0, 1, 2, and 3 hours), 200 μL of quench solution (100% acetonitrile with 0.1% formic acid) with internal standard was transferred to each well. Midazolam was included as a positive control to verify assay performance. Plates were sealed and centrifuged at 4° C. for 15 minutes at 4000 rpm. The supernatant is transferred to fresh plates for LC/MS/MS analysis.
Summarized conditions (customizable): [Compound]=[…], Positive control: midazolam and/or naloxone, [Hepatocyte]=0.5 million cells/Ml, time=0, 60, 120, and 180 m t=37° C.
All samples were analyzed on LC/MS/MS using an ABSciex API 4000 instrument, coupled to a Shimadzu LC-20AD LC Pump system. Analytical samples were separated using a Waters Atlantis T3 dC18 reverse phase HPLC column (20 mm×2.1 mm) at a flow rate of 0.5 mL/min. The mobile phase consisted of 0.1% formic acid in water (solvent A) and 0.1% formic acid in 100% acetonitrile (solvent B).
The extent of metabolism was calculated as the disappearance of the test compound, compared to the 0-min control reaction incubations. Initial rates were calculated for the compound concentration and used to determine t½ values and subsequently, the intrinsic clearance, Clint. Clint=(0.693)(1/t½ (min))(mL incubation/million cells)

Data set [2] can be described thus: Microsomal stability assay, HLM. Type of data set: in vitro ADME. The conditions noted are these: human, pH 7.4, 1 μM test compound, 0.5 mg/mL liver microsomes protein, 37° C., 0-60 min, read-out: HLM +/− NADPH: Clint (μL/min/mg protein). From the text: (§1) Microsomal Stability Assay: Microsomal stability assay is a widely used in vitro model to characterize the metabolic conversion by phase I enzymes, such as cytochrome P450 (CYP) enzymes. Since metabolism is known to be highly variable in different species, microsomal stability assay is commonly run in multiple species. Metabolic stability of testing compound can be evaluated using human, rat, mouse, or other animal liver or intestine microsomes to predict intrinsic clearance.
(§2) The assay was carried out in 96-well microtiter plates at 37° C. Reaction mixtures (25 μL) contained a final concentration of 1 μM test compound, 0.5 mg/mL liver microsomes protein, and 1 mM NADPH and/or 1 mM UDPGA (with alamethicin) in 100 mM potassium phosphate, pH 7.4 buffer with 3 mM MgCl2. The incubation was done with N=1, but duplicate incubation at each time point can be prepared if necessary. At each of the time points (for example, 0, 15, 30, and 60 minutes), 150 μL of quench solution (100% acetonitrile with 0.1% formic acid) with internal standard was transferred to each well. Besides the zero minute controls, mixtures containing the same components except the NADPH can also be prepared as the negative control. Verapamil was included as a positive control to verify assay performance. Plates were sealed, vortexed, and centrifuged at 4° C. for 15 minutes at 4000 rpm. The supernatant is transferred to fresh plates for LC/MS/MS analysis.
(§3) Summarized conditions: [Compound]=1 μM, [LM]=0.5 mg/mL, [NADPH]=1 mM and/or [UDPGA]=1 mM, Buffer=100 mM Potassium Phosphate, pH 7.4 with 3 mM MgCl2, Time=0, 15, 30, and 60 min, and Temperature=37° C.
(§4) All samples were analyzed on LC/MS/MS using an AB Sciex API 4000 instrument, coupled to a Shimadzu LC-20AD LC Pump system. Analytical samples were separated using a Waters Atlantis T3 dC18 reverse phase HPLC column (20 mm×2.1 mm) at a flow rate of 0.5 mL/min. The mobile phase consisted of 0.1% formic acid in water (solvent A) and 0.1% formic acid in 100% acetonitrile (solvent B).
(§5) The extent of metabolism is calculated as the disappearance of the test compound, compared to the 0-min time incubation. Initial rates are calculated for the compound concentration and used to determine half-life (t½) values and subsequently, the intrinsic clearance (Clint). Clint=(0.693)(1/t½ (min))(g of liver/kg of body weight)(mL incubation/mg of microsomal protein)(45 mg of microsomal protein/g of liver weight)
For orientation: Microsomes from liver hold many membrane-bound enzymes, among them those of drug oxidation.

A short description of data set [3]: Microsomal stability assay, MLM. Type of data set: in vitro ADME. The note with it: mouse, pH 7.4, 1 μM test compound, 0.5 mg/mL liver microsomes protein, 37° C., 0-60 min, read-out: MLM +/− NADPH: Clint (μL/min/mg protein).
Text: as §1, §2, §3, §4, §5

Usually IC50 stands for the concentration needed to halve the response being measured. With `CC(C)(c1ccc(OCC(=O)CNS(C)(=O)=O)cc1)c1cc(Cl)c(OC[C@H](O)CCl)c(Cl)c1` [A51(S), (S)—N-(3-(4-(2-(3,5-dichloro-4-(3-chloro-2-hydroxypropoxy)phenyl)propan-2-yl)phenoxy)-2-oxopropyl)methanesulfonamide], in the data set on LNCaP ARE-Luc, the IC50 was less than 100 nM. In addition, the hepatocyte CLint at 1 μM in data set [1] is not below 18 µL/min/1e6 cells. Also, in data set [2], the microsomal CLint at 1 μM is not below 48 µL/min/mg.
Take `COCC(=O)COc1ccc(C(C)(C)c2cc(Cl)c(OC[C@H](O)CCl)c(Cl)c2)cc1` [A56(S), (S)-1-(4-(2-(3,5-dichloro-4-(3-chloro-2-hydroxypropoxy)phenyl)propan-2-yl)phenoxy)-3-methoxypropan-2-one]: the IC50 in the data set with LNCaP ARE-Luc is not below 250 nM. For the same compound, the hepatocyte CLint at 1 μM in data set [1] was not below 18 µL/min/1e6 cells. Also, the microsomal CLint at 1 μM in data set [3] and in data set [2] was not below 48 µL/min/mg each time.
As for `CC(C)(c1ccc(OCC(=O)CNS(C)(=O)=O)cc1)c1cc(Cl)c(OCCCCl)c(Cl)c1` [Compound A31, N-(3-(4-(2-(3,5-dichloro-4-(3-chloropropoxy)phenyl)propan-2-yl)phenoxy)-2-oxopropyl)methanesulfonamide], the IC50 in the data set on LNCaP ARE-Luc is less than 100 nM. The hepatocyte CLint at 1 μM in data set [1] was not below 18 µL/min/1e6 cells. Also, in data set [2], the microsomal CLint at 1 μM was not below 48 µL/min/mg.
As to `CC(C)(c1ccc(OCC(=O)CS(C)(=O)=O)cc1)c1cc(Cl)c(OCC(O)CCl)c(Cl)c1` (stereo not drawn) [Compound A54], in data set [1], the hepatocyte CLint at 1 μM is not below 18 µL/min/1e6 cells. Further, the microsomal CLint at 1 μM in data set [3] and in data set [2] was not below 48 µL/min/mg each time.
`CC(C)(c1ccc(OCC(=O)CS(C)(=O)=O)cc1)c1cc(Cl)c(OCCCCl)c(Cl)c1` [Compound A55, 1-(4-(2-(3,5-dichloro-4-(3-chloropropoxy)phenyl)propan-2-yl)phenoxy)-3-(methylsulfonyl)propan-2-one]: the IC50 in the data set on LNCaP ARE-Luc is not below 250 nM. Besides, in data set [1], the hepatocyte CLint at 1 μM was not below 18 µL/min/1e6 cells. For the same compound, the microsomal CLint at 1 μM in data set [3] and in data set [2] was not below 48 µL/min/mg throughout.
`COCC(=O)COc1ccc(Cc2cc(Cl)c(OCC(O)CCl)c(Cl)c2)cc1` (stereo not drawn) [Compound A57]: in data set [1], the hepatocyte CLint at 1 μM is not below 18 µL/min/1e6 cells. The microsomal CLint at 1 μM in data set [3] and in data set [2] was not below 48 µL/min/mg throughout.
In the case of `COCC(=O)COc1ccc(C(F)(F)c2cc(Cl)c(OCC(O)CCl)c(Cl)c2)cc1` (stereo not drawn) [Compound A58], the hepatocyte CLint at 1 μM in data set [1] was not below 18 µL/min/1e6 cells. Moreover, the microsomal CLint at 1 μM in data set [3] and in data set [2] was not below 48 µL/min/mg in each case.
For `COCC(=O)COc1ccc(C(C)(C)c2cc(Cl)c(OCCCCl)c(Cl)c2)cc1` [Compound A59], the hepatocyte CLint at 1 μM in data set [1] was not below 18 µL/min/1e6 cells. For the same compound, the microsomal CLint at 1 μM in data set [3] and in data set [2] was not below 48 µL/min/mg each time.
With `COCC(=O)COc1ccc(C(C)(C)c2cc(Cl)c(OCC(C)(O)CCl)c(Cl)c2)cc1` (stereo not drawn) [Compound A60], the hepatocyte CLint at 1 μM in data set [1] was not below 18 µL/min/1e6 cells. Moreover, the microsomal CLint at 1 μM in data set [3] and in data set [2] was not below 48 µL/min/mg throughout.
For the compound `CC(C)(c1ccc(OCC(=O)CNS(C)(=O)=O)cc1)c1cc(Cl)c(OCCCBr)c(Cl)c1` [Compound A61], in the data set with LNCaP ARE-Luc, the IC50 lay in the range of 100 to 250 nM. Moreover, the hepatocyte CLint at 1 μM in data set [1] is not below 18 µL/min/1e6 cells. The microsomal CLint at 1 μM in data set [3] and in data set [2] was not below 48 µL/min/mg in each case.
With `CC(C)(c1cccc(OCC(=O)CNS(C)(=O)=O)c1)c1ccc(Cl)c(OCCCCl)c1Cl` [Compound A77], in the data set with LNCaP ARE-Luc, the IC50 is less than 100 nM. Further, the figures for the microsomal CLint at 1 μM in data set [3] and in data set [2] were 12 to 48 µL/min/mg and less than 12 µL/min/mg, respectively.
For the compound `CN(CC(=O)CNS(C)(=O)=O)c1ccc(C(C)(C)c2cc(Cl)c(OCCCl)c(Cl)c2)cc1` [Compound A81, N-(3-((4-(2-(3,5-dichloro-4-(2-chloroethoxy)phenyl)propan-2-yl)phenyl) (methyl)amino)-2-oxopropyl)methanesulfonamide hydrochloride], the IC50 in the data set on LNCaP ARE-Luc was not below 250 nM. In addition, the microsomal CLint at 1 μM in data set [3] and in data set [2] was 12 to 48 µL/min/mg in each case.
